Results taken from patent US20100273772A1, “Bisaryl Alkynylamides as Negative Allosteric Modulators of Metabotropic Glutamate Receptor 5 (MGLUR5)” (Wyeth LLC, priority 2009, published 2010).

What was measured:
rat mGluR5 receptor = target: T1, rat mGluR5 receptor (Rattus norvegicus, UniProt P31424); assay: [3H]-MPEP binding HEK-293 cell membranes expressing a rat mGluR5 receptor; details: displacement of 4 nM [3H]-MPEP, HEK-293 cell membranes expressing rat mGluR5, 60 minute at room temperature; read-out: mGluR5 Ligand Binding DR Ki
T1 construct: expressed in transfected cells; host or cells: HEK-293
Procedure: TITLE: [^3H]-MPEP binding HEK-293 cell membranes expressing a rat mGluR5 receptor. PURPOSE: To identify high affinity compounds at the rat mGluR5 receptor based on their ability to displace the mGluR5 negative allosteric modulator, MPEP.
mGluR5 expressing HEK-293 cells are scraped off the plate, transferred to centrifuge tubes, and washed twice by centrifugation (2000 rpm for 10 min., 4° C.) in buffer (50 mM Tris pH 7.5). The resulting pellets are aliquoted and placed at −80° C. On the day of assay, the cells are thawed on ice, and resuspended in buffer. The binding assay is performed in a 96 well microtiter plate in a total volume of 250 μL. Non-specific binding is determined in the presence of 10 μM MPEP. Binding reaction includes a final radioligand [^3H]-MPEP concentration of 4 nM and 12-25 ug membrane protein per well. Following a 60 minute incubation at room temperature, the reaction is terminated by the addition of ice cold buffer and rapid filtration through a GF/B filter presoaked for 30 minutes in 0.5% PEI. Compounds are initially tested in a single point assay to determine percent inhibition at 10 μM. Subsequently, Ki values are determined for compounds defined to be active.
% inhibition and Ki values generated by GraphPad Prism and Excel Fit. IC50 values are calculated using GraphPad by fitting to a 1 or 2 site-binding model. Ki values are calculated from the apparent IC50 values using the Cheng-Prussof equation:
(§1) where [L]=concentration of free radioligand and Kd=dissociation constant of radioligand for the receptor. TITLE: Identification of metabotropic glutamate receptor 5 antagonists using a stable, sensitive fluorescence-based screening system PURPOSE: The aim of the research presented here was to develop a robust functional assay to measure changes in intracellular calcium, with the goal of identifying potent mGluR5 antagonists.

[1] = target: T2, metabotropic glutamate receptor 5 (Rattus norvegicus, UniProt P31424); assay: FLIPR Calcium 3 fluorescence-based functional assay of intracellular calcium, mGluR5 antagonist activity; assay type: cell-based; details: inhibition of glutamate (EC90, ~50 uM) stimulated calcium levels, mGluR5 HEK-293 cells; read-out: mGluR5 FLIPR MP Antagonist DR IC50
T2 construct: expressed in transfected cells; host or cells: HEK-293
Description: as §1
The FLIPR Calcium 3 Assay Kit is designed to work with many cell types, both adherent and non-adherent. Optimal cell conditions for the FLIPR Calcium 3 Assay Kit require the creation of a confluent cell monolayer before placing the plates in FLIPR or FlexStation. In general, we start with 50,000 mGluR5 HEK-293 cells/well for a 96-well plate. For adherent cells, seeding cells overnight with a plating volume of 100 μL/well worked for 96-well plates.
Remove cell plates from the incubator. Remove the supernatant medium. Add 180 ul of Loading Buffer to each well (for 96-well plates). HBSS buffer component B) pipette 100 mL of 10× Hank's Balanced Salt Solution and 20 mL of 1M Hepes buffer
Incubate cell plates for 1 hour at 37° C. and then keep the plates at room temperature until used.
After incubation, transfer the plates directly to FLIPR and begin the calcium assay as described in the FLIPR system manual. For a signal test, a starting average count of ˜10,000 is recommended. Recommended experimental setup parameters are as follows. Faster addition speeds can lead to better mixing of compounds and lower signal variance across the plate.
Test or reference compound is added to the 96-well plate (manually). […] Relative Fluorescence Units (RFUs) are recorded over a given time period (stated above) depending on the platform system used.
For antagonists, results are expressed as % inhibition of glutamate stimulated Calcium levels. IC50 values were calculated by Prism GraphPad using a 4-parameter logistic equation. IC50 values are calculated using GraphPad by fitting to a 1 site-model.

T1 sequence (P31424 21-1203): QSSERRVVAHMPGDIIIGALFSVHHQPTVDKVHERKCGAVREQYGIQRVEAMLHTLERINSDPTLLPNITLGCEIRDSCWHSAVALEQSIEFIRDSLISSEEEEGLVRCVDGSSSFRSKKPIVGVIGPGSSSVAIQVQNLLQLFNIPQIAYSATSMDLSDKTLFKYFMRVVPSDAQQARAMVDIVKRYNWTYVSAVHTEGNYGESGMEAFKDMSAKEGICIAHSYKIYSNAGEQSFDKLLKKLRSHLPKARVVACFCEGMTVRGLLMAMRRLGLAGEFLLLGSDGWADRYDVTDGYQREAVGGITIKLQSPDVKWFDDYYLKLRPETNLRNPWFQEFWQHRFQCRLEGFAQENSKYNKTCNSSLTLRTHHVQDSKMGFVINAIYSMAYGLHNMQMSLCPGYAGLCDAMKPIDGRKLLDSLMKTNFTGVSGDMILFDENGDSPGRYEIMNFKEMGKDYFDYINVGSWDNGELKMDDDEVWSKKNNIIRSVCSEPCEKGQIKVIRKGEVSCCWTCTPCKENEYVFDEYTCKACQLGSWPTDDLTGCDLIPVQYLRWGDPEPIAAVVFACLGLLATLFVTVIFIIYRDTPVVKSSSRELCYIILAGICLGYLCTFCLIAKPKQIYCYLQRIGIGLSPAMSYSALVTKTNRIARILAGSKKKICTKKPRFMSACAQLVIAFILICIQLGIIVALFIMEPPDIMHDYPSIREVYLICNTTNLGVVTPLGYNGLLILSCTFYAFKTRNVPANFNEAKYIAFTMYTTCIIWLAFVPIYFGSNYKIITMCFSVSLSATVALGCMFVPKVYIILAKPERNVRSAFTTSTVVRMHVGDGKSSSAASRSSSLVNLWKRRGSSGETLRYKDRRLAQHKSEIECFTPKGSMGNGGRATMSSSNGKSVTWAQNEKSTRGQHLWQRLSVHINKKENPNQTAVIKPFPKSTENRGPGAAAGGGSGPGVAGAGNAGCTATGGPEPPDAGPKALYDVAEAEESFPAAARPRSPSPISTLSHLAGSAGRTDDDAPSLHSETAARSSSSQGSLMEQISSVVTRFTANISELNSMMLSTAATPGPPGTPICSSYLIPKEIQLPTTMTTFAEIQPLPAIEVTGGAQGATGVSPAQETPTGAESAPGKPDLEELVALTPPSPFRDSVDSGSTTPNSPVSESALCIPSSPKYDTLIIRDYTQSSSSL
T2 sequence (P31424 21-1203): as above

Compound | Ki (rat mGluR5 receptor) [µM] | IC50 [1] [µM]
COc1ccc(C(=O)N2CCc3c(Cl)cc(Cl)cc3C2)cc1C#Cc1ccccn1 [Example 7, 5,7-dichloro-2-[4-methoxy-3-(pyridin-2-ylethynyl)benzoyl]-1,2,3,4-tetrahydroisoquinoline] |  | 0.176
COc1ccc(C(=O)N2CCc3nc[nH]c(=O)c3C2)cc1C#Cc1ccccn1 [Example 15, 6-[4-methoxy-3-(pyridin-2-ylethynyl)benzoyl]-5,6,7,8-tetrahydropyrido[4,3-d]pyrimidin-4(3H)-one] | 0.096 | 
COc1ccc(C(=O)N2Cc3ccccc3C2CC(C)(C)O)cc1C#Cc1ccccn1 (stereo not shown) [Example 17, 1-{2-[4-methoxy-3-(pyridin-2-ylethynyl)benzoyl]-2,3-dihydro-1H-isoindol-1-yl}-2-methylpropan-2-ol] | 0.612 | 
COc1ccc(C(=O)N2C3CCC2c2ccccc23)cc1C#Cc1ccccn1 [Example 18, 9-[4-methoxy-3-(pyridin-2-ylethynyl)benzoyl]-1,2,3,4-tetrahydro-1,4-epiminonaphthalene] | 1.12 | 
COc1ccc(C(=O)N2CCc3cccc(C4CCN(S(C)(=O)=O)CC4)c3C2)cc1C#Cc1ccccn1 [Example 23, 2-[4-methoxy-3-(pyridin-2-ylethynyl)benzoyl]-8-[1-(methylsulfonyl)piperidin-4-yl]-1,2,3,4-tetrahydroisoquinoline] | > 10 | 
COc1ccc(C(=O)N2Cc3ccccc3C(Oc3ccc(C(F)(F)F)cc3)C2)cc1C#Cc1ccccn1 (stereo not shown) [Example 24, 2-[4-methoxy-3-(pyridin-2-ylethynyl)benzoyl]-4-[4-(trifluoromethyl)phenoxy]-1,2,3,4-tetrahydroisoquinoline] | 0.52 | 
COc1ccc(C(=O)N2CCc3ccccc3[C@H]2[C@@H]2CCCO2)cc1C#Cc1ccccn1 [Example 28, (1S)-2-[4-methoxy-3-(pyridin-2-ylethynyl)benzoyl]-1-[(2S)-tetrahydrofuran-2-yl]-1,2,3,4-tetrahydroisoquinoline] | 0.178 | 
COc1ccc(C(=O)N2CCc3ccccc3C2Cc2ccccc2)cc1C#Cc1ccccn1 (stereo not shown) [Example 30, 1-benzyl-2-[4-methoxy-3-(pyridin-2-ylethynyl)benzoyl]-1,2,3,4-tetrahydroisoquinoline] | 0.327 | 
COc1ccc(C(=O)N2CCn3c(nnc3C(F)(F)F)C2)cc1C#Cc1ccccn1 [Example 49, 7-{[4-methoxy-3-(pyridin-2-ylethynyl)phenyl]carbonyl}-3-(trifluoromethyl)-5,6,7,8-tetrahydro[1,2,4]triazolo[4,3-a]pyrazine] | 0.269 | 
COc1ccc(C(=O)N2CCNc3ccccc3C2)cc1C#Cc1ccccn1 [Example 56, 4-{[4-methoxy-3-(pyridin-2-ylethynyl)phenyl]carbonyl}-2,3,4,5-tetrahydro-1H-1,4-benzodiazepine] | 0.112 | 
O=C(c1ccc(OCC2CC2)c(C#Cc2ccccn2)c1)N1Cc2ccccc2C1 [Example 80, 2-{[4-(Cyclopropylmethoxy)-3-(pyridin-2-ylethynyl)phenyl]carbonyl}-2,3-dihydro-1H-isoindole] | 0.189 | 
O=C(c1ccc(C(F)(F)F)c(C#Cc2ccccn2)c1)N1CCc2cccnc2C1 [Example 99, 7-{[3-(Pyridin-2-ylethynyl)-4-(trifluoromethyl)phenyl]carbonyl}-5,6,7,8-tetrahydro-1,7-naphthyridine] | 0.034 | 
O=C(c1ccc(C(F)(F)F)c(C#Cc2ccccn2)c1)N1Cc2ccncc2C1 [Example 102, 2-{[3-(Pyridin-2-ylethynyl)-4-(trifluoromethyl)phenyl]carbonyl}-2,3-dihydro-1H-pyrrolo[3,4-c]pyridine] | 0.12 | 

Continued by falling Ki (rat mGluR5 receptor), values first:

Ki (rat mGluR5 receptor) [µM] | IC50 [1] [µM] | Compound
0.011 | 0.13 | COc1ccc(C(=O)N2CCc3ccc(C#N)cc3C2)cc1C#Cc1ccccn1 [Example 11, 2-[4-methoxy-3-(pyridin-2-ylethynyl)benzoyl]-1,2,3,4-tetrahydroisoquinoline-7-carbonitrile]
0.008 | > 1 | COc1ccc(C(=O)N2CCc3[nH]c4ccccc4c3C2)cc1C#Cc1ccccn1 [Example 12, 2-[4-methoxy-3-(pyridin-2-ylethynyl)benzoyl]-2,3,4,5-tetrahydro-1H-pyrido[4,3-b]indole]
0.008 | 0.051 | COc1ccc(C(=O)N2CCc3ncc(Br)cc3C2)cc1C#Cc1ccccn1 [Example 14, 3-bromo-6-[4-methoxy-3-(pyridin-2-ylethynyl)benzoyl]-5,6,7,8-tetrahydro-1,6-naphthyridine]
0.006 | 0.03 | COc1ccc(C(=O)N2CCc3c(OC)ccc(OC)c3C2)cc1C#Cc1ccccn1 [Example 19, 5,8-dimethoxy-2-[4-methoxy-3-(pyridin-2-ylethynyl)benzoyl]-1,2,3,4-tetrahydroisoquinoline]
0.005 | 0.044 | COc1ccc(C(=O)N2CCc3sccc3C2)cc1C#Cc1ccccn1 [Example 13, 5-[4-methoxy-3-(pyridin-2-ylethynyl)benzoyl]-4,5,6,7-tetrahydrothieno[3,2-c]pyridine]
0.004 | 0.01 | COc1ccc(C(=O)N2Cc3ccccc3C2)cc1C#Cc1ccccn1 [Example 1, 2-[4-Methoxy-3-(pyridin-2-ylethynyl)benzoyl]isoindoline]
0.003 | 0.023 | 7-fluoro-2-[4-methoxy-3-(pyridin-2-ylethynyl)benzoyl]-1,2,3,4-tetrahydroisoquinoline [Example 9]
0.003 | 0.024 | COc1ccc(C(=O)N2CCc3ccccc3C2)cc1C#Cc1ccccn1 [Example 2, 2-[4-methoxy-3-(pyridin-2-ylethynyl)benzoyl]-1,2,3,4-tetrahydroisoquinoline]
0.002 | 0.044 | COc1ccc(C(=O)N2CCc3c(F)cccc3C2)cc1C#Cc1ccccn1 [Example 3, 5-fluoro-2-[4-methoxy-3-(pyridin-2-ylethynyl)benzoyl]-1,2,3,4-tetrahydroisoquinoline]
0.002 | 0.151 | COc1ccc(C(=O)N2CCc3cccc(C(F)(F)F)c3C2)cc1C#Cc1ccccn1 [Example 5, 2-[4-methoxy-3-(pyridin-2-ylethynyl)benzoyl]-8-(trifluoromethyl)-1,2,3,4-tetrahydroisoquinoline]
0.002 | 0.052 | COc1ccc(C(=O)N2CCc3c(F)ccc(F)c3C2)cc1C#Cc1ccccn1 [Example 6, 5,8-difluoro-2-[4-methoxy-3-(pyridin-2-ylethynyl)benzoyl]-1,2,3,4-tetrahydroisoquinoline]
0.001 | 0.125 | 2-[4-methoxy-3-(pyridin-2-ylethynyl)benzoyl]-7-(trifluoromethyl)-1,2,3,4-tetrahydroisoquinoline [Example 16]
0.001 | 0.016 | COc1ccc(C(=O)N2CCc3ccc(Cl)cc3C2)cc1C#Cc1ccccn1 [Example 8, 7-chloro-2-[4-methoxy-3-(pyridin-2-ylethynyl)benzoyl]-1,2,3,4-tetrahydroisoquinoline]
0.001 | 0.05 | COc1ccc(C(=O)N2CCc3c(Cl)cccc3C2)cc1C#Cc1ccccn1 [Example 10, 5-chloro-2-[4-methoxy-3-(pyridin-2-ylethynyl)benzoyl]-1,2,3,4-tetrahydroisoquinoline]
0.0004 | 0.134 | COc1ccc(C(=O)N2CCc3c(cccc3C(F)(F)F)C2)cc1C#Cc1ccccn1 [Example 4, 2-[4-methoxy-3-(pyridin-2-ylethynyl)benzoyl]-5-(trifluoromethyl)-1,2,3,4-tetrahydroisoquinoline]
